Test results published in paper PMC10388696 (Clinical cancer research : an official journal of the …, 2023).

Experiments:
[1] = tested on: T-cell activation; settings: in vitro; cited from earlier work
[2] = tested on: multiple syngeneic models; settings: in vivo; cited from earlier work
[3] = Clinical plasma pharmacokinetics; settings: human, in vivo
[4] = Safety: treatment-related AEs and DLTs; format: in vivo
[5] = tested on: PI3K-γ; settings: cited from earlier work
[6] = tested on: cancer cell proliferation; settings: in vitro; cited from earlier work
[7] = tested on: advanced solid tumors; assay: Tumor response by RECIST 1.1; format: in vivo, human; settings: monotherapy Part A, 20 mg, one patient with peritoneal mesothelioma
[8] = across preclinical species; cited from earlier work
[9] = QT interval corrected with Fridericia's method; format: in vivo, human; settings: any dose level (data not shown)

C[C@H](NC(=O)c1c(N)nn2cccnc12)c1cc2cccc(C#Cc3cnn(C)c3)c2c(=O)n1-c1ccccc1 [Eganelisib]
direct effect on T-cell activation [1]: no direct effect | tumor growth in syngeneic models [2]: tumor growth delay | half-life ([3]; 10 mg, terminal t1/2): 10.6 to 23.6 h | half-life ([3]; 10 mg, terminal t1/2, geometric mean): 39.8 h | dose proportionality of exposure (Cmax and AUC) ([3]; 60 mg): approximately dose proportional | half-life ([3]; effective t1/2 calculated from the AR estimate): 9.3 to 25.7 h | Tmax ([3]; po): 1 to 6 h | half-life ([3]; t1/2): 10.6 to 39.8 h | ALT increased, treatment-related, any grade ([4]; human, in vivo): 3 (16%) n (%) | AST increased, treatment-related, any grade ([4]; human, in vivo): 4 (21%) n (%) | Fatigue, treatment-related, any grade ([4]; human, in vivo): 2 (11%) n (%) | Grade ≥3 treatment-related AEs ([4]; human, in vivo): 2 (11%) n (%) | Headache, treatment-related, any grade ([4]; human, in vivo): 2 (11%) n (%) | Rash, treatment-related, any grade ([4]; human, in vivo): 3 (16%) n (%) | hepatic AEs ([4]; human, in vivo): 33% | increased ALT, treatment-related grade ≥3 ([4]; human, in vivo): 18% | increased AST, treatment-related grade ≥3 ([4]; human, in vivo): 18% | increased alkaline phosphatase, treatment-related grade ≥3 ([4]; human, in vivo): 5% | patients who discontinued for a treatment-related AE ([4]; human, in vivo): 8% | patients with dose reduction for a treatment-related AE ([4]; human, in vivo): 3% | treatment-related SAEs ([4]; human, in vivo): 2 (5%) n (%) | treatment-related serious adverse events ([4]; human, in vivo): 5% | grade 5 treatment-related AEs ([4]; monotherapy): no grade 5 treatment-related AEs | MTD ([4]; monotherapy, 10–60 mg QD): no dose of eganelisib monotherapy met MTD criteria | IC50 [5]: […] | direct effect on cancer cell proliferation [6]: […] | duration of response (PR) [7]: […] | oral bioavailability [8]: ≥ 31% | effects on QTcF [9]: No clinically relevant effects
